Tests used:
Assay type in all cases: cell-based
HCV replicon = experiment: Replicon assay (Table 2, genotype not stated); settings: Hepatitis C virus, Table 2, first measurement, luciferase activity after 48 hours
Method: Compounds were assayed for activity against HCV using the genotype 1a and 1b subgenomic replicon model systems. Stable cell lines bearing the genotype 1a and 1b replicons were used for screening of compounds. Both replicons are bicistonic and contain the firefly luciferase gene. The ET cell line is stably transfected with RNA transcripts harboring a I389luc-ubi-neo/NS3-3′/ET replicon with firefly luciferase-ubiquitin-neomycin phosphotransferase fusion protein and EMCV-IRES driven NS3-5B polyprotein containing the cell culture adaptive mutations (E1202G; T12801; K1846T) (Krieger at al, 2001 and unpublished). The genotype 1a replicon is a stable cell line licensed from Apath LLC, modified to contain the firefly luciferase gene. The cells were grown in DMEM, supplemented with 10% fetal calf serum, 2 mM Glutamine, Penicillin (100 IU/mL)/Streptomycin (100 μg/mL), 1× nonessential amino acids, and 250-500 μg/mL G418 (“Geneticin”). They were all available through Life Technologies (Bethesda, Md.). The cells were plated at 0.5×10^4 cells/well in 384 well plates containing compounds. The final concentration of compounds ranged between 0.03 μM to 50 μm and the final DMSO concentration of 0.5-1%.
Luciferase activity was measured 48 hours later by adding a Steady glo (Promega, Madison, Wis.). Percent inhibition of replication data was plotted relative to no compound control. Under the same condition, cytotoxicity of the compounds was determined using cell titer glo (Promega, Madison, Wis). IC50s were determined from a 10 point dose response curve using 3-4-fold serial dilution for each compound, which spans a concentration range >1000 fold. BioAssay determines the level of inhibition for each compound by normalizing cross-talk corrected plate values against the negative […] controls to determine Percent Inhibition:
These normalized values are exported to EC50 where they are plotted against the molar compound concentrations using the standard four parameter logistic equation: […]
Some EC50 measurements were repeated a second time and for both 1A and 1B genotypes after those reported in Table 2 for compounds 101-108 and the repeated data was reported in Table 3.

HCV Genotype 1B Replicon = experiment: Replicon assay, genotype 1b subgenomic replicon (ET cell line), luciferase readout; settings: Hepatitis C virus, 48 h, Table 3; luciferase activity after 48 hours
Procedure, shortened: (§1)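 Stable luciferase replicon cells (1b: ET line with adaptive mutations; 1a: Apath-derived) plated at 0.5×10^4 cells/well with compound (final 0.03–50 μM, 0.5–1% DMSO). Luciferase read after 48 h; EC50 from 10-point, 3–4-fold dilution curves by four-parameter logistic fit, normalized to no-compound and no-cell controls.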

HCV Genotype 1A Replicon = experiment: Replicon assay, genotype 1a subgenomic replicon, luciferase readout; settings: Hepatitis C virus, 48 h, Table 3; luciferase activity after 48 hours
Procedure, shortened: as §1

Row | Structure (SMILES) | EC50 (HCV replicon) | EC50 (HCV Genotype 1B Replicon) | EC50 (HCV Genotype 1A Replicon)
1 | O=C(c1nc2c(C(F)(F)F)cc(-c3ccoc3)cn2c1Cl)N1CCC(N2CCCC2=O)CC1 [Compound 101, 1-[1-(3-Chloro-6-furan-3-yl-8-trifluoromethyl-imidazo[1,2-a]pyridine-2-carbonyl)-piperidin-4-yl]-pyrrolidin-2-one] | 57 nM |  | 
2 | O=C(c1nc2c(C(F)(F)F)cc(-c3cn[nH]c3)cn2c1Cl)N1CCC(N2CCCC2=O)CC1 [Compound 102, 1-{1-[3-Chloro-6-(1H-pyrazol-4-yl)-8-trifluoromethyl-imidazo[1,2-a]pyridine-2-carbonyl]-piperidin-4-yl}-pyrrolidin-2-one] | 683 nM |  | 
3 | O=C(c1nc2c(C(F)(F)F)cc(-c3ccoc3)cn2c1Cl)N1CCC(N2CCOC2=O)CC1 [Compound 103, 3-[1-(3-Chloro-6-furan-3-yl-8-trifluoromethyl-imidazo[1,2-a]pyridine-2-carbonyl)-piperidin-4-yl]-oxazolidin-2-one] | 26 nM | 20 nM | 10 nM
4 | O=C(c1nc2c(C(F)(F)F)cc(-c3ccccc3)cn2c1Cl)N1CCC(N2CCOC2=O)CC1 [Compound 104, 3-[1-(3-Chloro-6-phenyl-8-trifluoromethyl-imidazo[1,2-a]pyridine-2-carbonyl)-piperidin-4-yl]-oxazolidin-2-one] | 283 nM |  | 
5 | O=C(c1nc2c(C(F)(F)F)cc(Br)cn2c1Cl)N1CCC(N2CCOC2=O)CC1 [Compound 105, 3-[1-(6-Bromo-3-chloro-8-trifluoromethyl-imidazo[1,2-a]pyridine-2-carbonyl)-piperidin-4-yl]-oxazolidin-2-one] | 71 nM | 40 nM | 30 nM
6 | C=C(C)c1cc(C(F)(F)F)c2nc(C(=O)N3CCC(N4CCOC4=O)CC3)c(Cl)n2c1 [Compound 106, 3-[1-(3-Chloro-6-isopropenyl-8-trifluoromethyl-imidazo[1,2-a]pyridine-2-carbonyl)-piperidin-4-yl]-oxazolidin-2-one] | 5 nM | 20 nM | 10 nM
7 | O=C(c1nc2c(C(F)(F)F)cc(C3=CCCC3)cn2c1Cl)N1CCC(N2CCOC2=O)CC1 [Compound 107, 3-[1-(3-Chloro-6-cyclopent-1-enyl-8-trifluoromethyl-imidazo[1,2-a]pyridine-2-carbonyl)-piperidin-4-yl]-oxazolidin-2-one] | 16 nM |  | 
8 | O=C(c1nc2c(C(F)(F)F)cc(-c3cn[nH]c3)cn2c1Cl)N1CCC(N2CCOC2=O)CC1 [Compound 108, 3-{1-[3-Chloro-6-(1H-pyrazol-4-yl)-8-trifluoromethyl-imidazo [1,2-a]pyridine-2-carbonyl]-piperidin-4-yl}-oxazolidin-2-one] | 213 nM | 130 nM | 20 nM

From patent US20100272680A1, “Piperidinyl Cyclic Amido Antiviral Agents” (priority 2009, published 2010)
